Experimental data taken from US5021421A, “2-(1-Piperazinyl)-4-phenylcycloalkanopyridine derivatives, processes for the production thereof, and pharmaceutical composition containing the same” (Dainippon Pharmaceutical Co., Ltd., priority 1989, dated 1991).
Like-named read-outs stand apart in the source and are kept apart here.

How the values were obtained:
[1] = U.S. Pat. No. 4,831,034; cited from earlier work
[2] = system: apomorphine-induced vomiting; test: Antagonistic effect on apomorphine-induced vomiting; format: in vivo, dogs (Beagle)
Procedure, shortened: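 Beagle dogs (8–15 kg, 3–4 per group) received test compound, then 0.3 mg/kg apomorphine hydrochloride s.c. two hours later. Vomiting episodes counted over 1 h; percent inhibition calculated against a non-dosed control group.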

dopamine (D2) receptor = molecular target: T1, dopamine (D2) receptor (Rattus norvegicus, UniProt P61169); test: In vitro binding to dopamine (D2) receptor, [3H] spiperone; set-up: species or system rats; conditions: for IC50: [3H] spiperone, rat brain crude synaptosome fraction, read-out: IC50 D2
T1 construct: Crude synaptosome fractions were prepared from some brain regions in rats for receptor sources; from tissue
T1 sequence (P61169 whole entry): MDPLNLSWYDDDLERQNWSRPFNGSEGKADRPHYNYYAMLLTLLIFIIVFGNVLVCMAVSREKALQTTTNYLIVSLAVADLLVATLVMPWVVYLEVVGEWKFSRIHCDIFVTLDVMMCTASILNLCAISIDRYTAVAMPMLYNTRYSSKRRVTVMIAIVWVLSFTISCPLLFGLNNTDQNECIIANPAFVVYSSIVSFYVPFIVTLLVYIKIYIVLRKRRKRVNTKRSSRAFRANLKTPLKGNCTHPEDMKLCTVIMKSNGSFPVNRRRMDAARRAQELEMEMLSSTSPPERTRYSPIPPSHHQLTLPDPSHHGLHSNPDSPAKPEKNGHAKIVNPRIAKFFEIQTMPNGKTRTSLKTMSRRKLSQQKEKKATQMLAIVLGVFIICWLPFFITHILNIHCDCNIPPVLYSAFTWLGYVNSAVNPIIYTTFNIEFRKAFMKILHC
Procedure: (§1) Dopamine (D2), serotonin (S1, S2) and adrenaline (α1) receptor binding assays were carried out according to the methods of I. Creese et al. [Eur. J. Pharmacol., 46, 377 (1977), S. J. Peroutka et al. [Mol. Pharmacol. 16, 687 (1979)], J. E. Leysen et al. [Mol. Pharmacol., 21, 301 (1982)] and D. C. U'Prichard et al. [Mol. Pharmacol., 13, 454 (1977)], respectively.
(§2) Crude synaptosome fractions were prepared from some brain regions in rats for receptor sources. Radioactive ligands used were [^3 H] spiperone (D2), [^3 H] serotonin (S1), [^3 H] ketanserin (S2) and [^3 H] WB-4101 (α1). The binding assay was performed by incubating aliquots of synaptosome fraction in buffer solution (final volume: 1 ml) containing a [^3 H] labelled ligand and a test compound. The assay was terminated by rapid filtration through Whatman GF/B glass fiber filters attached to a cell-harvester (Brandel) and radioactivity on the filters was counted in a Packard Triscarb scintillation counter. Specific binding was calculated as a difference between amounts of radioactivity in the presence and absence of an unlabelled ligand [spiperone (D2), serotonin (S1), methysergide (S2) and prazosin (α1)]. The IC50 value of the test compounds (concentration causing 50% inhibition of [^3 H] ligand specific binding) was determined by probit analysis.

serotonin (S2) receptor = molecular target: T2, serotonin (S2) receptor (Rattus norvegicus, UniProt P14842); test: In vitro binding to serotonin (S2) receptor, [3H] ketanserin; set-up: species or system rats; conditions: for IC50: [3H] ketanserin, rat brain crude synaptosome fraction
T2 construct: Crude synaptosome fractions were prepared from some brain regions in rats for receptor sources; from tissue
T2 sequence (P14842 whole entry): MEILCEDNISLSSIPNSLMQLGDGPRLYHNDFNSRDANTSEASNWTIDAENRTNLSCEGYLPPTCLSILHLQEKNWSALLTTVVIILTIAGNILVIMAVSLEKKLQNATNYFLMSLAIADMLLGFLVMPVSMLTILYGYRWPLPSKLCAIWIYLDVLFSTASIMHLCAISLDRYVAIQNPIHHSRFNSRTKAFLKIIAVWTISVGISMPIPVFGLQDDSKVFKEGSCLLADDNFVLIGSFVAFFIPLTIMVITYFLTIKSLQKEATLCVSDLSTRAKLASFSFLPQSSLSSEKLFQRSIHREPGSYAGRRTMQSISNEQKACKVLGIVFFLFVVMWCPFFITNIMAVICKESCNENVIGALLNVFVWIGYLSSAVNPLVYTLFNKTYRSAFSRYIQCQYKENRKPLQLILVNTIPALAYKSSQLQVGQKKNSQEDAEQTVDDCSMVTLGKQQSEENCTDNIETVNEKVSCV
Procedure: as §1, §2

adrenaline (α1) receptor = test: In vitro binding to adrenaline (α1) receptor, [3H] WB-4101; set-up: species or system rats; conditions: [3H] WB-4101, rat brain crude synaptosome fraction
Procedure: as §1, §2

mice = test: Acute toxicity; format: in vivo, mice (Std-ddy strain); conditions: dose 500 mg/kg oral, 7 days observation
Description: A group of 5 male mice (Std-ddy strain, 25-30 g) was used. The test compound was orally administered to the test animal in the form of a 0.5% tragacanth solution or suspension, and for 7 days after the administration of the test compound, the lethality of animals was observed.

[3] = system: brain monoamine metabolites; test: Increasing effect on concentration of brain monoamine metabolites; format: in vivo, mice (Std-ddy strain); conditions: Mus musculus, 2 h, non-dosed=100
Procedure, shortened: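 Male Std-ddy mice (25-30 g, n=5) decapitated 2 h after dosing; brain extracts analysed by HPLC with electrochemical detection for DOPAC, HVA, MOPEG and 5-HIAA. Values expressed as % of non-dosed controls (=100).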

serotonin (S1) receptor = test: In vitro binding to serotonin (S1) receptor, [3H] serotonin; set-up: species or system rats; conditions: rat brain crude synaptosome fraction
Procedure: as §1, §2

[4] = Psychotropic / anti-psychotic (neuroleptic) activity, general statement; conditions: experiments by the present inventors
[5] = Canis lupus familiaris, sc, apomorphine 0.3 mg/kg s.c. 2 h after compound, read-out: Inhibitory ratio (apomorphine-induced vomiting)
[6] = read-out: DOPAC concentration, % of control
[7] = read-out: HVA concentration, % of control
[8] = read-out: 5-HIAA concentration, % of control
[9] = read-out: MOPEG concentration, % of control

For `Cc1ccc(CN2CCN(c3cc(-c4ccccc4)ccn3)CC2)cc1` [2-[4-(4-methylbenzyl)-1-piperazinyl]-4-phenylpyridine], the “activity as an anti-psychotic drug or as a neuroleptic drug” value [1] is listed as “weak activity”.
For `CCN1CCN(c2cc(-c3ccc(F)cc3)c3c(n2)CCCCCC3)CC1` [Example 1a, 2-(4-ethyl-1-piperazinyl)-4-(4-fluorophenyl)-5,6,7,8,9,10-hexahydrocycloocta[b]pyridine], the inhibition in vivo at 0.2 mg/kg [2, 5] was 100%, the IC50 (dopamine (D2) receptor) was 24 nM and the IC50 (serotonin (S2) receptor) was 9.9 nM. The IC50 (adrenaline (α1) receptor) was 83 nM and the “Number of dead animals / Number of test animals” value (mice) was 0/5.
In the case of `CCN1CCN(c2cc(-c3ccc(F)cc3F)c3c(n2)CCCCCC3)CC1` [Example 2b, 2-(4-ethyl-1-piperazinyl)-4-(2,4-difluorophenyl)-5,6,7,8,9,10-hexahydrocycloocta[b] pyridine], the inhibition in vivo at 0.2 mg/kg [2, 5] is reported as 100%, the response vs control in vivo at 2 mg/kg [3, 6] is reported as 364% and the response vs control in vivo at 2 mg/kg [3, 7] is reported as 271%. For the same molecule, the “Number of dead animals / Number of test animals” value (mice) was 0/5.
For `CCN1CCN(c2cc(-c3ccc(F)cc3)c3c(n2)CCC3)CC1` [Example 6, 2-(4-Ethyl-1-piperazinyl)-4-(4-fluorophenyl)-6,7-dihydro-5H-1-pyrindine], the inhibition in vivo at 1 mg/kg ([2]; Canis lupus familiaris, sc, dose 1.0 mg/kg, apomorphine 0.3 mg/kg s.c. 2 h after compound, read-out: Inhibitory ratio (apomorphine-induced vomiting)) was 89%, the IC50 (dopamine (D2) receptor) was 19 nM and the IC50 (serotonin (S1) receptor) was 1500 nM. It also gave an IC50 (serotonin (S2) receptor) of 7.6 nM, an IC50 (adrenaline (α1) receptor) of 6.9 nM and a response vs control in vivo at 10 mg/kg [3, 8] of 103%. The response vs control in vivo at 10 mg/kg [3, 6] was 321%, the response vs control in vivo at 10 mg/kg [3, 7] was 242% and the response vs control in vivo at 10 mg/kg [3, 9] was 115%. The “Number of dead animals / Number of test animals” value (mice) was 0/5.
`CCN1CCN(c2cc(-c3ccc(F)cc3)c3c(n2)CCCCC3)CC1` [Example 25, 2-(4-Ethyl-1-piperazinyl)-4-(4-fluorophenyl)-6,7,8,9-tetrahydro-5H-cyclohepta[b]pyridine] gave an inhibition in vivo at 3 mg/kg ([2]; Canis lupus familiaris, sc, dose 3.0 mg/kg, apomorphine 0.3 mg/kg s.c. 2 h after compound, read-out: Inhibitory ratio (apomorphine-induced vomiting)) of 100%, an IC50 (dopamine (D2) receptor) of 77 nM and an IC50 (serotonin (S1) receptor) of 2600 nM. For the same molecule, the IC50 (serotonin (S2) receptor) was 2.3 nM, the IC50 (adrenaline (α1) receptor) was 120 nM and the response vs control in vivo at 1 mg/kg [3, 8] was 113%. The response vs control in vivo at 1 mg/kg [3, 6] was 272%, the response vs control in vivo at 1 mg/kg [3, 7] was 207% and the response vs control in vivo at 1 mg/kg [3, 9] was 106%. The “Number of dead animals / Number of test animals” value (mice) was 0/5.
In the case of `Cc1nc(N2CCN(c3ccccc3)CC2)cc(-c2ccc(F)cc2)c1-c1ccc(F)cc1` [Test Compound A, 4,5-Bis-(4-fluorophenyl)-6-methyl-2-(4-phenylpiperazino)pyridine, reference compound], the inhibition in vivo at 3 mg/kg ([2]; Canis lupus familiaris, sc, 2 h, read-out: Inhibitory ratio (apomorphine-induced vomiting)) is reported as 11%, the “effect on apomorphine-induced vomiting (in words)” value ([2]; dog, in vivo) is reported as “no inhibitory effect” and the “binding property to dopamine (D2) receptors (in words)” value (dopamine (D2) receptor) is reported as “no binding property”. The IC50 (dopamine (D2) receptor) was greater than 10000 nM, the “binding property to serotonin (S2) receptors (in words)” value (serotonin (S2) receptor) was “no binding property” and the IC50 (serotonin (S2) receptor) was greater than 10000 nM. For the same molecule, the IC50 (adrenaline (α1) receptor) was greater than 10000 nM and the psychotropic activity [4] was “did not show any psychotropic activity”.
